In brackets after ≈: the same amount, converted by molar mass. Activity calls are given as the source filed them. The rule behind the calls is not given here.
How the values were obtained:
MDA-MB-468 [1] = test: Induction of apoptosis in human MDA-MB-468 cells assessed as early apoptotic cells at 100 nM after 24 hrs by Annexin-FITC/propidium iodide staining based flow cytometry (reference value: 0.35 to 1.25%); type: functional
MDA-MB-231 = test: Antiproliferative activity against human MDA-MB-231 cells assessed as reduction in cell viability after 72 hrs by MTT assay; type: functional, cell-based; settings: MDA-MB-231, 72 h
MDA-MB-468 [2] = test: Induction of apoptosis in human MDA-MB-468 cells assessed as viable cells at 100 nM after 48 hrs by Annexin-FITC/propidium iodide staining based flow cytometry (reference value: 96.8%); type: functional; settings: MDA-MB-468, 48 h, read-out: Activity
MDA-MB-468 [3] = test: Induction of apoptosis in human MDA-MB-468 cells assessed as early apoptotic cells at 100 nM after 48 hrs by Annexin-FITC/propidium iodide staining based flow cytometry (reference value: 0.35 to 1.25%); type: functional
HCT-15 = test: Antiproliferative activity against human HCT15 cells assessed as reduction in cell viability after 72 hrs by MTT assay; type: functional, cell-based; settings: HCT-15, 72 h
[4] = Retention time of the compound using acetonitrile:water at ratio of 50:50 as mobile phase by reverse-phase HPLC analysis; type: physicochemical; settings: buffer
[5] = Ratio of compound aqueous solubility to CA-4 aqueous solubility at 1 mg/ml after 24 hrs by shake flask method based HPLC analysis; type: physicochemical; settings: buffer
Tubulin (Sus scrofa) [6] = target: T1, Tubulin (Sus scrofa) (UniProt P02554+P02550); test: (§1) Inhibition of pig brain tubulin polymerization in presence of GTP by spectrophotometric analysis
Tubulin = Tubulin (Sus scrofa, UniProt P02554+P02550); test: as §1
MDA-MB-468 [7] = test: Antiproliferative activity against human MDA-MB-468 cells assessed as reduction in cell viability after 72 hrs by MTT assay; type: functional, cell-based; settings: MDA-MB-468, 72 h
MDA-MB-468 [8] = test: Induction of apoptosis in human MDA-MB-468 cells assessed as viable cells at 100 nM after 24 hrs by Annexin-FITC/propidium iodide staining based flow cytometry (reference value: 96.8%); type: functional; settings: MDA-MB-468, 24 h, read-out: Activity
MDA-MB-468 [9] = test: Antitumor activity against human MDA-MB-468 cells xenografted in nude mouse assessed as tumour growth inhibition at 30 mg/kg, ip administered every other day for 21 days relative to control; type: functional; settings: MDA-MB-468, ip, 504 h, read-out: TGI
Mus musculus [10] = species: Mus musculus; test: Inhibition of tubulin polymerization in mouse B16F10 cells assessed as disruption of microtubule network at 400 nM incubated for 6 hrs by DAPI staining based confocal microscopy; type: cell-based
[11] = 1-Octanol/water partition coefficient, log P of compound at 1 mg after 1 hr by HPLC analysis; type: physicochemical
MDA-MB-468 [12] = test: Induction of apoptosis in human MDA-MB-468 cells assessed as necrotic cells at 100 nM after 48 hrs by Annexin-FITC/propidium iodide staining based flow cytometry (reference value: 0.97 to 1.29%); type: functional
MDA-MB-468 [13] = test: Induction of apoptosis in human MDA-MB-468 cells assessed as necrotic cells at 100 nM after 72 hrs by Annexin-FITC/propidium iodide staining based flow cytometry (reference value: 0.97 to 1.29%); type: functional
[14] = Toxicity in nude mouse xenografted with human MDA-MB-468 cells assessed as effect on body weight at 30 to 60 mg/kg, ip administered every other day for 21 days; type: organism-based; settings: in vivo, 504 h
MDA-MB-468 [15] = test: Induction of apoptosis in human MDA-MB-468 cells assessed as early apoptotic cells at 100 nM after 72 hrs by Annexin-FITC/propidium iodide staining based flow cytometry (reference value: 0.35 to 1.25%); type: functional
HeLa = test: Antiproliferative activity against human HeLa cells assessed as reduction in cell viability after 72 hrs by MTT assay; type: functional, cell-based
MDA-MB-468 [16] = test: Induction of apoptosis in human MDA-MB-468 cells assessed as late apoptotic cells at 100 nM after 48 hrs by Annexin-FITC/propidium iodide staining based flow cytometry (reference value: 1.03 to 1.59%); type: functional
T47D = test: Antiproliferative activity against human T47D cells assessed as reduction in cell viability after 72 hrs by MTT assay; type: functional, cell-based
[17] = Aqueous solubility of the compound at 1 mg/ml after 24 hrs by shake flask method based HPLC analysis; type: physicochemical
Tubulin (Sus scrofa) [18] = target: T1, Tubulin (Sus scrofa); test: Inhibition of pig brain tubulin polymerization at 3 to 6 uM in presence of GTP by spectrophotometric analysis relative to control
MDA-MB-468 [19] = test: Induction of apoptosis in human MDA-MB-468 cells assessed as late apoptotic cells at 100 nM after 72 hrs by Annexin-FITC/propidium iodide staining based flow cytometry (reference value: 1.03 to 1.59%); type: functional
MDA-MB-468 [20] = test: Antitumor activity against human MDA-MB-468 cells xenografted in nude mouse assessed as tumour growth inhibition at 60 mg/kg, ip administered every other day for 21 days relative to control; type: functional; settings: MDA-MB-468, ip, 504 h, read-out: TGI
MDA-MB-468 [21] = test: Induction of cell cycle arrest in human MDA-MB-468 cells assessed as accumulation of cells at G2/M phase at IC50 concentration by propidium iodide staining-based flow cytometric analysis; type: functional; settings: TDE = time-dependent effect
MDA-MB-468 [22] = test: Induction of apoptosis in human MDA-MB-468 cells assessed as late apoptotic cells at 100 nM after 24 hrs by Annexin-FITC/propidium iodide staining based flow cytometry (reference value: 1.03 to 1.59%); type: functional
MDA-MB-468 [23] = test: Induction of apoptosis in human MDA-MB-468 cells assessed as necrotic cells at 100 nM after 24 hrs by Annexin-FITC/propidium iodide staining based flow cytometry (reference value: 0.97 to 1.29%); type: functional
HT-29 = test: Antiproliferative activity against human HT-29 cells assessed as reduction in cell viability after 72 hrs by MTT assay; type: functional, cell-based; settings: HT-29, 72 h
HUVEC = test: Cytotoxicity against HUVEC assessed as reduction in cell viability after 72 hrs by MTT assay; type: cell-based; settings: Homo sapiens
MDA-MB-468 [24] = test: Induction of apoptosis in human MDA-MB-468 cells assessed as viable cells at 100 nM after 72 hrs by Annexin-FITC/propidium iodide staining based flow cytometry (reference value: 96.8%); type: functional; settings: MDA-MB-468, 72 h, read-out: Activity
Mus musculus [25] = species: Mus musculus; test: Inhibition of tubulin polymerization in mouse B16F10 cells assessed as disruption of microtubule network at 200 nM incubated for 6 hrs by DAPI staining based confocal microscopy; type: cell-based

T1 sequence (P02550 whole entry, looked up): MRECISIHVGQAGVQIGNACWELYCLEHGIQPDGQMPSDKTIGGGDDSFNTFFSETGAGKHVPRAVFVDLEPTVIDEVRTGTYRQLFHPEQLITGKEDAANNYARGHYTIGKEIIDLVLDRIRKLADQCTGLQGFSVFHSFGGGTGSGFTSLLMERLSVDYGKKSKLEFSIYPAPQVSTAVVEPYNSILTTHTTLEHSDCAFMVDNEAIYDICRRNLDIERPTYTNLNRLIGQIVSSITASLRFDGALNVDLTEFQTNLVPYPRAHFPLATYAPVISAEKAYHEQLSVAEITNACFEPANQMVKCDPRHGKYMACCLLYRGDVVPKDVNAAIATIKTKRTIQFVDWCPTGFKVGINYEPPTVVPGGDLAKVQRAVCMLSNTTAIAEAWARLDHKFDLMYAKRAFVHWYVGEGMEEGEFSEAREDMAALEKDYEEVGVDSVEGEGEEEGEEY
T1 sequence (P02554 whole entry, looked up): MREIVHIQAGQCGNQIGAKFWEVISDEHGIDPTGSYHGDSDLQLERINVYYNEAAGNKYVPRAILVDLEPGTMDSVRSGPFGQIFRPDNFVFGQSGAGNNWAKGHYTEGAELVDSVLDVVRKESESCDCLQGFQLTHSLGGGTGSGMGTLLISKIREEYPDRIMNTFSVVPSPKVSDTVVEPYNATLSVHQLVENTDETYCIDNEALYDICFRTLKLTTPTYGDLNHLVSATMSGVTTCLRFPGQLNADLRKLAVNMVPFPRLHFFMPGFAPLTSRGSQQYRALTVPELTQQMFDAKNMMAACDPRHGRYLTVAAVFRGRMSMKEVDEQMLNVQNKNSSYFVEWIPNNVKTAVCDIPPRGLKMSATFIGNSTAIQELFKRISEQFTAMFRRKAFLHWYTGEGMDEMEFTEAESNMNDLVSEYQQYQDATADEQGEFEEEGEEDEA

Compound: COc1ccc(-n2ccnc2-c2cc(OC)c(OC)c(OC)c2)cc1N
- Activity (MDA-MB-468 [1]): 0.38%
- IC50 (MDA-MB-231): 1040 nM
- viability at 0.1 µM (MDA-MB-468 [2]): 79.6%
- Activity (MDA-MB-468 [3]): 1.18%
- IC50 (HCT-15): 100 nM
- Retention_time [4]: 5 min
- Ratio [5]: 13
- inhibition (Tubulin (Sus scrofa) [6]): Dose-dependent effect
- IC50 (Tubulin): 400 nM
- IC50 (MDA-MB-468 [7]): 90 nM
- viability at 0.1 µM (MDA-MB-468 [8]): 94.5%
- inhibition in vivo at 30 mg/kg (MDA-MB-468 [9]): 48%
- inhibition (Mus musculus [10]): Active
- logP at 1 h [11]: 1.77
- Activity (MDA-MB-468 [12]): 4.19%
- Activity (MDA-MB-468 [13]): 3.27%
- Activity [14]: Non-Toxic
- Activity (MDA-MB-468 [15]): 1.53%
- IC50 (HeLa): 80 nM
- Activity (MDA-MB-468 [16]): 15%
- IC50 (T47D): 500 nM
- solubility thermodynamic at 24 h [17]: 36.7 µg/mL (≈ 103 µM)
- inhibition (Tubulin (Sus scrofa) [18]): 100%
- Activity (MDA-MB-468 [19]): 22.9%
- inhibition in vivo at 60 mg/kg (MDA-MB-468 [20]): 77%
- Activity (MDA-MB-468 [21]): Tde
- Activity (MDA-MB-468 [22]): 3.56%
- Activity (MDA-MB-468 [23]): 1.51%
- IC50 (HT-29): 200 nM
- IC50 (HUVEC): 58500 nM
- viability at 0.1 µM (MDA-MB-468 [24]): 72.3%

Compound: COc1ccc(/C=C\c2cc(OC)c(OC)c(OC)c2)cc1O [COMBRETASTATIN A4]
- Activity (MDA-MB-468 [1]): 1.44%
- IC50 (MDA-MB-231): 13.5 nM
- viability at 0.1 µM (MDA-MB-468 [2]): 60%
- Activity (MDA-MB-468 [3]): 0.84%
- IC50 (HCT-15): 3.2 nM
- Retention_time [4]: 12.5 min
- inhibition (Mus musculus [25]): Active
- IC50 (MDA-MB-468 [7]): 6.5 nM
- viability at 0.1 µM (MDA-MB-468 [8]): 79.2%
- Activity (MDA-MB-468 [12]): 7.2%
- Activity (MDA-MB-468 [13]): 9.4%
- Activity (MDA-MB-468 [15]): 1.84%
- IC50 (HeLa): 9.2 nM
- Activity (MDA-MB-468 [16]): 31.9%
- IC50 (T47D): 14.6 nM
- Activity (MDA-MB-468 [19]): 55.3%
- inhibition in vivo at 60 mg/kg (MDA-MB-468 [20]): 87.5%
- Activity (MDA-MB-468 [21]): Tde
- Activity (MDA-MB-468 [22]): 15.7%
- Activity (MDA-MB-468 [23]): 3.67%
- IC50 (HT-29): 30.5 nM
- IC50 (HUVEC): > 100000 nM
- viability at 0.1 µM (MDA-MB-468 [24]): 33.4%
